Data taken from patent US20250275987A1, “MODULATORS OF INTRACELLULAR CHLORIDE CONCENTRATION FOR USE IN THE TREATMENT OF COGNITIVE DECLINE” (FONDAZIONE ISTITUTO ITALIANO DI TECNOLOGIA, priority 2022, published 2025).

How the values were obtained:
[1] = test system: mice C57BL/6J aged >24 months; assay: Open field test after benzodiazepine administration; assay type: in vivo; details: elderly mice (>24 months), 2 mg/kg in saline, vs elderly vehicle or young mice treated with diazepam
Excerpt: FIG. 2 illustrates the evaluation of the effect of benzodiazepines in elderly mice which is indicative of a potentiated GABAergic transmission. a) Quantification of the immobility time during the open field test of mice treated with vehicle (young, n=7, elderly, n=6) or diazepam (young, n=7, elderly, n=7) (two-way ANOVA, Tukey post hoc test, *** P<0.001). b) Quantification of the distance travelled during the open field test by mice treated with vehicle (young, n=7, elderly, n=6) or diazepam (young, n=7, elderly, n=7) (two-way ANOVA, Tukey post hoc test, […], *** P<0.001).
In fact, benzodiazepines are positive allosteric modulators of GABAAR. Benzodiazepines are commonly used as anxiolytic drugs, but can produce anxiogenic or highly sedative effects depending on the polarity of GABAergic transmission. To test the reaction of elderly mice to benzodiazepines, mice C57BL/6J aged >24 months and 2-month old controls C57BL/6J were treated with diazepam (2 mg/kg in saline solution) or vehicle (2% DMSO in saline solution). The open field test was then carried out to evaluate locomotor activity and the level of anxiety of the mice tested. […] This is indicative of an over-sedation reaction of the diazepam in the elderly mice, which may reflect the presence of hyper-inhibitory GABAergic transmission. This evidence in accordance with the […] of KCC2 (FIG. 1b).

[2] = target: T1, KCC2 (Homo sapiens, UniProt Q9H2X9); assay: Thallium influx functional assay (FluxOR Potassium ion channel assay) in HEK293T cells transfected with KCC2; assay type: cell-based
T1 construct: expressed in transfected cells; host or cells: HEK293T
T1 sequence (Q9H2X9 1-1139): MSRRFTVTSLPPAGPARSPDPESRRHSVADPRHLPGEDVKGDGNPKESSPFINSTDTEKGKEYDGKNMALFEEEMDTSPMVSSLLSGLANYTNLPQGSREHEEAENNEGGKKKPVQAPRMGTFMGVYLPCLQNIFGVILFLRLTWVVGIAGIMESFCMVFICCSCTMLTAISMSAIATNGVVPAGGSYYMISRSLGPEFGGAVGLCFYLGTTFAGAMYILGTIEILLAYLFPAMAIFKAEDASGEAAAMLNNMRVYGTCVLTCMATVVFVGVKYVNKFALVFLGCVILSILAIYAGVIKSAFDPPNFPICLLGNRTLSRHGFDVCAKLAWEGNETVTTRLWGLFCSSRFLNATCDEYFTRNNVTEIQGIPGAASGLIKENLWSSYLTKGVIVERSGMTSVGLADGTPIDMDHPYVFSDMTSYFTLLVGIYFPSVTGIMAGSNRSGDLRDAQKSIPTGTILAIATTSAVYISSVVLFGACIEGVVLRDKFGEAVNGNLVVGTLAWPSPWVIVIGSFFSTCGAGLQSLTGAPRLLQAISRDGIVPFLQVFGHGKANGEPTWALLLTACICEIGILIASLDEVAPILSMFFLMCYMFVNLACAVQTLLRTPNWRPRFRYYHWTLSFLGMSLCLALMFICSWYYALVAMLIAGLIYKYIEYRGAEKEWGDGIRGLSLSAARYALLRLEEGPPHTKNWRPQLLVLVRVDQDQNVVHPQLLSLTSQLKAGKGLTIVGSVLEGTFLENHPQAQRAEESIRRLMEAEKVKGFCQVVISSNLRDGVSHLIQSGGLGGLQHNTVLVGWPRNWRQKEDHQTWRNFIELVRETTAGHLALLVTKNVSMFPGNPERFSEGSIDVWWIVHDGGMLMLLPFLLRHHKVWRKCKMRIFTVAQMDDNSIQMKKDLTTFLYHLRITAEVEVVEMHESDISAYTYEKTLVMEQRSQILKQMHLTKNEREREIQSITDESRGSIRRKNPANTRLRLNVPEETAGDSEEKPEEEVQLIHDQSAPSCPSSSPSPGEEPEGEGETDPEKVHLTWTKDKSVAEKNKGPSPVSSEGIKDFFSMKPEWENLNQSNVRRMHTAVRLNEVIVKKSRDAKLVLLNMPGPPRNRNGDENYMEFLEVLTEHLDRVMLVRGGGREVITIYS
Experimental: To verify the efficacy of the compounds to inhibit KCC2 in vitro a functional assay was used (FluxOR Potassium ion channel assay, Life Technologies), which measures the influx of thallium ions (replacing potassium) which permeate into the cell through KCC2. The thallium ions inside the cell are then measured using a Thallium sensor, the fluorescence of which increases after binding with thallium. In particular, the HEK293T cells were transfected with KCC2 or with the empty plasmid (mock control cells). After two days the cells were treated with the thallium sensor and in a solution without chlorine ions. After one hour the cells were washed and treated with furosemide and DMSO as negative control, again in a solution without chlorine ions and in the presence of a sodium/potassium pump inhibitor (ouabain). After twenty minutes the plates were placed in the Tecan Spark reader. The inhibitory activity of furosemide, reported in Table 1, was measured monitoring the fluorescence after thallium (TlSO4) and chlorine (NaCl) application.

[3] = test system: elderly mice; assay: Object localization (OL) test of spatial memory in elderly mice; assay type: in vivo; details: 25 mg/kg i.p., vs vehicle, FIG. 3b
Excerpt: FIG. 3 illustrates the evaluation of the efficacy of furosemide (KCC2 inhibitor) to restore impaired memory in elderly mice. a) Quantification of the discrimination index of the NOR test in young (n=13) and elderly (n=10) mice (two tailed t-test, ** P<0.01). b) Quantification of the discrimination index of the OL test in mice treated with vehicle (young, n=13, elderly, n=7) or furosemide (young, n=11, elderly, n=6) (two-way ANOVA, Tukey post hoc test, * P<0.05).
To evaluate memory capacity in the elderly mice, the novel object recognition (NOR) test was conducted. This test evaluates the long-term object recognition memory by measuring the capacity of the mice to recognize a novel object compared to familiar objects. […] Subsequently, to test the ability of the non-selective KCC2 inhibitor, furosemide, to restore poor memory, the object localization (OL) test was conducted in the presence of the drug. The object localization test evaluates spatial memory by measuring the ability of the mice to recognize the new position of a familiar object. The mice were treated with furosemide (25 mg/kg i.p.) or with the vehicle.

Row | Structure (SMILES) | immobility time during the open field test ([1]; FIG. 2a) | distance travelled during the open field test ([1]; FIG. 2b) | % KCC2 inhibition at 10 μM ([2]; 10 μM, HEK293T cells transfected with KCC2, thallium fluorescence) | inhibition at 50 µM ([2]; HEK-293T, 50 μM, HEK293T cells transfected with KCC2, thallium fluorescence) | inhibition at 100 µM ([2]; HEK-293T, 100 μM, HEK293T cells transfected with KCC2, thallium fluorescence) | IC50 ([2]; KCC2 inhibition in vitro) | spatial memory (discrimination index of the OL test) [3]
1 | CN1C(=O)CN=C(c2ccccc2)c2cc(Cl)ccc21 [diazepam] | significantly higher immobility time | significantly lower distance travelled |  |  |  |  | 
2 | NS(=O)(=O)c1cc(C(=O)O)c(NCc2ccco2)cc1Cl [Furosemide, furosemide] |  |  | Inactive | 39.8 ± 1.6% | 45.1 ± 6.4% | 455 µM | significantly restored the poor spatial memory of the elderly mice to the level of the young mice
